In paper PMC12508057, “Discovery of ETI41 and ETI60: novel selective endosomal Toll-like receptor inhibitors for the treatment of autoimmune diseases” (Experimental & Molecular Medicine, 2025):

Target: T1, TLR9 (Mus musculus, UniProt Q9EQU3)
T1 construct: RAW 264.7 and differentiated THP-1 cells were seeded into 96-well plates; endogenous in cells; host or cells: RAW 264.7
T1 sequence (Q9EQU3 26-1032): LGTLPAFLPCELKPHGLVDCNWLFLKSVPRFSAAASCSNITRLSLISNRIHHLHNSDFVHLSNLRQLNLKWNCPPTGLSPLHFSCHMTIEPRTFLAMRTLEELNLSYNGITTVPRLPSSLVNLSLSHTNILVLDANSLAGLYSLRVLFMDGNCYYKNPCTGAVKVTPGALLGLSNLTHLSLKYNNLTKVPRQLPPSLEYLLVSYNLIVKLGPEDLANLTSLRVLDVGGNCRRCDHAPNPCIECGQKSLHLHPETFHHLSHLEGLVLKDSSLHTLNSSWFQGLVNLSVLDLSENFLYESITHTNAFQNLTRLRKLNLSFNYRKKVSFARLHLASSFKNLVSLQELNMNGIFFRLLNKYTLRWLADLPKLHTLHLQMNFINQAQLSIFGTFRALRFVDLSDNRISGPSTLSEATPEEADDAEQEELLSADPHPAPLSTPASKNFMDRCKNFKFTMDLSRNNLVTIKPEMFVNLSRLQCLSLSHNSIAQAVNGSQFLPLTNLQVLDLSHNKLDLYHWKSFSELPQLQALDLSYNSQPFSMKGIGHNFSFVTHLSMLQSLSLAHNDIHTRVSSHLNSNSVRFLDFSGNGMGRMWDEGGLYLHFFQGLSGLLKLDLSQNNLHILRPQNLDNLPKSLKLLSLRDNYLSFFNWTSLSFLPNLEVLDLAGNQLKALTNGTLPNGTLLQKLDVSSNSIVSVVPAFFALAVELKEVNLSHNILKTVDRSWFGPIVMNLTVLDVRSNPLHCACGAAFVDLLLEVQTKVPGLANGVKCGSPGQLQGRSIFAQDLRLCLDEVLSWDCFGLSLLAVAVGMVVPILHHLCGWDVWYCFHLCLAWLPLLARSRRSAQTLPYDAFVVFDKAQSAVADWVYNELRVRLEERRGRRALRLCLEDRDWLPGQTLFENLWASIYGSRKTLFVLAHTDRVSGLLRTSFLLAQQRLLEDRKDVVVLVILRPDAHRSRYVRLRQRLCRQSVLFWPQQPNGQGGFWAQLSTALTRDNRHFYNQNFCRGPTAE
Experiment: Real-time quantitative PCR in BMDCs stimulated with ODN2395
Format: cell-based
Conditions: primary BMDCs, 0.2 and 1 μM, ODN2395 1 μM
Procedure: Bone marrow cells from 8-week-old C57BL/6 mice (Jackson Laboratory) were cultured in RPMI 1640 with 20 ng/ml granulocyte-macrophage colony-stimulating factor (GM-CSF; Thermo Fisher Scientific) for 8 days. Bone marrow-derived dendritic cell (BMDC) purity was confirmed by fluorescence-activated cell sorting (FACS), showing 84% F4/80^− and CD11c^+ cells. […] Total mRNA was extracted using TRIzol reagent (Thermo Fisher Scientific) and reverse transcribed using the ReverTra Ace qPCR RT Kit (Toyobo). mRNA levels were determined using SYBR Green PCR Master Mix (Kapa Biosystems) and a CFX Connect RT-PCR System (Bio-Rad). Primers used were directed against IL-12p40, IFN-β, CD40 and GAPDH.
All experiments were independently conducted three times.

Question: How did the “Production of IL-12p40, IFN-β and CD40 (mRNA)” value turn out when `Cc1cc2c(N)c3c(nc2n1CCCN(C)C)CCCCCC3` [ETI41] was run?
Answer: significantly inhibited
